In US12484579B2, “Agrochemical composition and methods of preparing and using the same” (priority 2018, dated 2025):

Experiment: Solubility of Mesotrione in solvents
Assay type: physicochemical
Text: Mesotrione has been introduced in both Rhodiasolv® Li-Tec 2v and Rhodiasolv® Polarclean. Mesotrione is not soluble in Rhodiasolv® Li-Tec 2v and is soluble in (for instance at concentration of 30 g/L) Rhodiasolv® Polarclean.

CS(=O)(=O)c1ccc(C(=O)C2C(=O)CCCC2=O)c([N+](=O)[O-])c1 [Mesotrione, 2-(4-methylsulfonyl-2-nitrobenzoyl)-cyclohexane-1,3-dione]
Solubility in Rhodiasolv® Li-Tec 2v (solvent Rhodiasolv® Li-Tec 2v): not soluble
Solubility in Rhodiasolv® Polarclean (solvent Rhodiasolv® Polarclean, for instance at concentration of 30 g/L): soluble
